According to patent publication US9023865B2, “Compounds that are ERK inhibitors” (Merck Sharp & Dohme Corp., priority 2011, dated 2015):

Target: Active Human ERK2 (hERK2) (Homo sapiens (Human), UniProt P28482)
Test: Active Human ERK2 (hERK2) Activity Assay (IMAP-FP)
Type: biochemical
Conditions: phosphorylated active hERK2, 30 μM ATP; average; read-out: ERK 2 Human average IC50
Experimental: Assays Active Human ERK2 (hERK2) Activity Assay:
Activated ERK2 activity was determined in an IMAP-FP assay (Molecular Devices). […] The final reaction in each well of 25 μL consists of 0.5 nM hERK2, 900 nM unlabeled peptide, 80 nM labeled-peptide, and 30 μM ATP. Phosphorylation reactions were allowed to proceed for 60 minutes and were immediately quenched by the addition of […] IMAP detection beads (1:1000 dilutions) in IMAP binding buffer (Molecular Devices) with 24 mM NaCl. Plates were read on EnVision reader after 60 minutes binding equilibration using Fluorescence Polarization protocol (Perkin Elmer).

Active Human ERK2 (hERK2), sequence (P28482 whole entry): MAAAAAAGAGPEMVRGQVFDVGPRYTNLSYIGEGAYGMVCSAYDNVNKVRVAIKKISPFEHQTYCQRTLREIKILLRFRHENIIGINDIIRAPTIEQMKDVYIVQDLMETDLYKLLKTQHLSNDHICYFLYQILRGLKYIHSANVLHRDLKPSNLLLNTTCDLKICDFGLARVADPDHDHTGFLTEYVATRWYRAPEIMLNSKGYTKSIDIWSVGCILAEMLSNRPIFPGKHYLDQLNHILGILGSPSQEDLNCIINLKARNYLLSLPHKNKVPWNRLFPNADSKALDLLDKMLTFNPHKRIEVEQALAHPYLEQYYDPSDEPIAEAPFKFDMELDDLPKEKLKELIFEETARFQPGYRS

Row | SMILES | IC50 [nM]
1 | O=C(Nc1cc2[nH]nc(C3CC3)c2cn1)N[C@@H]1CCOc2ccccc21 [Example 154] | 70
2 | Cc1cc(-c2n[nH]c3cc(NC(=O)N[C@H]4[C@H](c5ccccc5C)CN(C)[C@H]4C)ncc23)ccn1 [Example 555] | 0.426
3 | C[C@@H](NC(=O)Nc1ncc2c(-c3ccnc(F)c3)n[nH]c2c1F)c1ccccc1 [Example 539] | 0.728
4 | C[C@@H](NC(=O)Nc1cc2[nH]nc(C3CCC3)c2cn1)c1ccc(Cl)cc1 [Example 151] | 11.1
5 | CCOC[C@@H](NC(=O)Nc1cc2[nH]nc(C(F)F)c2cn1)c1ccccc1 [Example 692] | 12
6 | COC[C@@H](NC(=O)Nc1cc2[nH]nc(-c3ccc4nnn(C)c4c3)c2cn1)c1ccccc1 [Example 697] | 0.221
7 | CO[C@H]1CN(C)C[C@@H]1NC(=O)Nc1cc2[nH]nc(-c3ccc(F)cc3)c2cn1 [Example 317] | 1.13
8 | COC[C@@H](NC(=O)Nc1cc2[nH]nc(-c3ccc(C#N)nc3)c2cn1)c1ccc(F)cc1 [Example 303] | 3.21
9 | COc1ccc(-c2n[nH]c3cc(NC(=O)NCc4ccc(F)cc4)ncc23)cc1 [Example 677] | 3.67
10 | COCCNC(=O)Nc1cc2[nH]nc(-c3cc(C)nc(OC)c3)c2cn1 [Example 631] | 17.4
11 | C[C@@H](NC(=O)Nc1cc2[nH]nc(-c3cncnc3)c2cn1)c1ccc(F)cc1 [Example 671] | 2.33
12 | COC(=O)C1CC1c1n[nH]c2cc(NC(=O)N[C@H](C)c3ccccc3)ncc12 (stereo partly shown) [Example 643] | 1.33
13 | C[C@@H](NC(=O)Nc1cc2[nH]nc(C3CC3)c2cn1)c1ccccn1 [Example 152] | 116
14 | C[C@@H](NC(=O)Nc1cc2[nH]nc(Br)c2cn1)c1ccc(F)c(Cl)c1 [Example 68, 1-(3-bromo-1H-pyrazolo[4,3-c]pyridin-6-yl)-3-[(1R)-1-(3-chloro-4-fluorophenyl)ethyl]urea] | 106
15 | C[C@@H](NC(=O)Nc1cc2[nH]nc(-c3cnn(C)c3)c2cn1)c1ccc(Cl)cc1 [Example 59, 1-[(1R)-1-(4-chlorophenyl)ethyl]-3-[3-(1-methyl-1H-pyrazol-4-yl)-1H-pyrazolo[4,3-c]pyridin-6-yl]urea] | 0.514
16 | C[C@@H](NC(=O)Nc1cc2[nH]nc(-c3ccn(C)n3)c2cn1)c1ccccc1 [Example 90, 1-[3-(1-methyl-1H-pyrazol-3-yl)-1H-pyrazolo[4,3-c]pyridin-6-yl]-3-[(1R)-1-phenylethyl]urea] | 2.19

Row | SMILES | IC50 [nM]
17 | C[C@@H](NC(=O)Nc1cc2[nH]nc(-c3cnn(C)c3)c2cn1)c1ccccc1 [Example 29, 1-[3-(1-methyl-1H-pyrazol-4-yl)-1H-pyrazolo[4,3-c]pyridin-6-yl]-3-[(1R)-1-phenylethyl]urea] | 0.334
18 | COC[C@@H](NC(=O)Nc1ncc2c(-c3ccnc(F)c3)n[nH]c2c1F)c1ccccc1 [Example 543] | 0.272
19 | C[C@@H](NC(=O)Nc1cc2[nH]nc(-c3ccc(C#N)cc3)c2cn1)c1cccc(Cl)c1 [Example 84, 1-[(1R)-1-(3-chlorophenyl)ethyl]-3-[3-(4-cyanophenyl)-1H-pyrazolo[4,3-c]pyridin-6-yl]urea] | 6.11
20 | CCNC(=O)Nc1cc2[nH]nc(C3CC3)c2cn1 [Example 157] | 253
21 | O=C(Nc1ncc2c(-c3ccncc3)n[nH]c2c1F)N[C@H](CO)c1ccccc1 [Example 548] | 0.315
22 | COC[C@@H](NC(=O)Nc1cc2[nH]nc(-c3cc(C)on3)c2cn1)c1ccccc1 [Example 683] | 4.36
23 | C[C@@H](NC(=O)Nc1cc2[nH]nc(C(=O)NCC(O)C(F)F)c2cn1)c1ccccc1 (stereo partly shown) [Example 123] | 4.49
24 | COC[C@@H](NC(=O)Nc1cc2[nH]nc(-c3ccc4cn(C)nc4c3)c2cn1)c1ccccc1 [Example 614] | 0.481
25 | CN1C[C@@H](NC(=O)Nc2cc3[nH]nc(-c4ccc(F)cc4)c3cn2)[C@H](c2ccccc2)C1 [Example 214] | 0.394
26 | CCCC(=O)c1n[nH]c2cc(NC(=O)N[C@H](COC)c3ccccc3)ncc12 [Example 684] | 26.8
27 | C[C@@H](NC(=O)Nc1cc2[nH]nc(C3CC3(F)F)c2cn1)c1ccc(F)cc1 (stereo partly shown) [Example 165] | 8.83
28 | C[C@@H](NC(=O)Nc1cc2[nH]nc(-c3ccc(=O)[nH]c3)c2cn1)c1ccc(F)cc1 [Example 282] | 0.304
29 | Cc1cc(-c2n[nH]c3c(Cl)c(NC(=O)N[C@H](C)c4ccccc4)ncc23)ccn1 [Example 571, (R)-1-(7-chloro-3-(2-methylpyridin-4-yl)-1H-pyrazolo[4,3-c]pyridin-6-yl)-3-(1-phenylethyl)urea] | 3.07
30 | C[C@@H](NC(=O)Nc1cc2[nH]nc(CO)c2cn1)c1ccccc1 [Example 615] | 6.16
31 | O=C(Nc1cc2[nH]nc(C(F)F)c2cn1)NC1Cc2ccccc2C1O (stereo not shown) [Example 696] | 175

Results, then the compound that gave them:

Row | IC50 [nM] | SMILES
32 | 1.07 | CCOCCNC(=O)Nc1cc2[nH]nc(-c3ccnc(C)c3)c2cn1 [Example 617]
33 | 3.92 | Cc1cc(-c2n[nH]c3cc(NC(=O)NCc4cccc5ccccc45)ncc23)ccn1 [Example 32, 1-[3-(2-methylpyridin-4-yl)-1H-pyrazolo[4,3-c]pyridin-6-yl]-3-(naphthalen-1-ylmethyl)urea]
34 | 0.761 | Cc1cc(-c2n[nH]c3cc(NC(=O)NCc4ncc(F)cc4Cl)ncc23)ccn1 [Example 517]
35 | 3.38 | Cc1cc(-c2n[nH]c3cc(NC(=O)NCc4cccc(-c5ccccc5)c4)ncc23)ccn1 [Example 333]
36 | 13.2 | C[C@@H](NC(=O)Nc1cc2[nH]nc(-c3ccc(OC(F)(F)F)cc3)c2cn1)c1ccccc1 [Example 674]
37 | 2.81 | Cc1cc(-c2n[nH]c3cc(NC(=O)NCC4(c5ccc(F)cc5)CC4)ncc23)ccn1 [Example 269]
38 | 0.378 | Cc1cc(-c2n[nH]c3cc(NC(=O)Nc4noc5cnccc45)ncc23)ccn1 [Example 360]
39 | 11.8 | Cc1cc(-c2n[nH]c3cc(NC(=O)NCc4ccc(Cl)cc4Cl)ncc23)ccn1 [Example 443]
40 | 0.78 | COC[C@@H](NC(=O)Nc1cc2[nH]nc(-c3ccnc(C)c3)c2cn1)c1ccccn1 [Example 416]
41 | 2.62 | Cc1cc(-c2n[nH]c3cc(NC(=O)NC[C@H]4COCCO4)ncc23)ccn1 [Example 549]
42 | 0.333 | Cc1cc(-c2n[nH]c3cc(NC(=O)NC(CCO)c4ccccc4)ncc23)ccn1 (stereo not shown) [Example 334]
43 | 11.3 | Cc1cc(-c2n[nH]c3cc(NC(=O)N[C@@H]4c5ccccc5C[C@H]4N(C)C)ncc23)ccn1 [Example 490]
44 | 0.873 | CO[C@@H](C)CNC(=O)Nc1cc2[nH]nc(-c3ccc(F)cc3)c2cn1 [Example 635]
45 | 0.914 | Cc1cc(-c2n[nH]c3cc(NC(=O)N[C@H](C)c4ccccn4)ncc23)ccn1 [Example 177]
46 | 48.1 | Cc1cc(-c2n[nH]c3cc(NC(=O)NCc4nnc(-c5ccccc5)[nH]4)ncc23)ccn1 [Example 397]
47 | 25.6 | Cc1cc(-c2n[nH]c3cc(NC(=O)NC(C)CO)ncc23)ccn1 (stereo not shown) [Example 200]
48 | 1.36 | Cc1cc(-c2n[nH]c3cc(NC(=O)NCc4ncc[nH]4)ncc23)ccn1 [Example 427]
49 | 5.95 | Cc1cc(-c2n[nH]c3cc(NC(=O)NCC4CN(C)CCO4)ncc23)ccn1 (stereo not shown) [Example 198]
50 | 0.323 | Cc1cc(-c2n[nH]c3cc(NC(=O)NCc4cnsn4)ncc23)ccn1 [Example 425]

Row | IC50 [nM] | SMILES
51 | 0.303 | Cc1cc(-c2n[nH]c3cc(NC(=O)N[C@H](C)c4ccc(F)c(F)c4)ncc23)ccn1 [Example 412]
52 | 0.805 | Cc1cc(-c2n[nH]c3cc(NC(=O)NC4CCc5[nH]ncc5C4)ncc23)ccn1 (stereo not shown) [Example 506]
53 | 379 | COc1cc(-c2n[nH]c3cc(NC(=O)N[C@H](C)c4ccc(F)cc4)ncc23)cc(C(F)(F)F)n1 [Example 257]
54 | 39.2 | CC[C@H](NC(=O)Nc1cc2[nH]nc(-c3ccnc(C)c3)c2cn1)c1ccc(Cl)cc1 [Example 413]
55 | 13.5 | Cc1cc(-c2n[nH]c3cc(NC(=O)NC(CO)C(F)(F)F)ncc23)ccn1 (stereo not shown) [Example 194]
56 | 127 | Cc1cc(-c2n[nH]c3cc(NC(=O)Nc4ccccc4)ncc23)ccn1 [Example 61, 1-[3-(2-methylpyridin-4-yl)-1H-pyrazolo[4,3-c]pyridin-6-yl]-3-phenylurea]
57 | 0.587 | Cc1cc(-c2n[nH]c3cc(NC(=O)NCc4ccsn4)ncc23)ccn1 [Example 476]
58 | 376 | Cc1cc(-c2n[nH]c3cc(NC(=O)NCC4CCO4)ncc23)ccn1 (stereo not shown) [Example 484]
59 | 0.171 | Cc1cc(-c2n[nH]c3cc(NC(=O)N[C@@H]4CN(C)C[C@H]4c4ccccc4F)ncc23)ccn1 [Example 184]
60 | 1.5 | COCCNC(=O)Nc1cc2[nH]nc(-c3ccnc(C4CC4)c3)c2cn1 [Example 629]
61 | 41 | Cc1cc(-c2n[nH]c3cc(NC(=O)N[C@@H](C)c4ccccn4)ncc23)ccn1 [Example 176]
62 | 1.62 | CCCNC(=O)Nc1cc2[nH]nc(-c3ccnc(C)c3)c2cn1 [Example 572]
63 | 1.25 | Cc1cc(-c2n[nH]c3cc(NC(=O)NC4COc5ccccc5C4)ncc23)ccn1 (stereo not shown) [Example 467]
64 | 13.8 | Cc1cc(-c2n[nH]c3cc(NC(=O)NCc4cn5cccc(C)c5n4)ncc23)ccn1 [Example 393]
65 | 21.9 | Cc1cc(-c2n[nH]c3cc(NC(=O)N[C@@H](C)c4ccncc4)ncc23)ccn1 [Example 235]
66 | 10.6 | Cc1cc(-c2n[nH]c3cc(NC(=O)NC4CCNC4)ncc23)ccn1 (stereo not shown) [Example 579]
67 | 31.2 | COC(=O)[C@@H](C)NC(=O)Nc1cc2[nH]nc(-c3ccnc(C)c3)c2cn1 [Example 461]
68 | 0.605 | Cc1cc(-c2n[nH]c3cc(NC(=O)NCc4ccccc4OC(F)(F)F)ncc23)ccn1 [Example 523]

Same assay, conditions: read-out: AERK2 IC50 (Active human ERK2 Activity Assay)

Row | IC50 [nM] | SMILES
69 | 0.2 to 1.7 | C[C@@H](NC(=O)Nc1cc2[nH]nc(-c3cnn(C)c3)c2cn1)c1ccc(Cl)cc1 [Example 59, 1-[(1R)-1-(4-chlorophenyl)ethyl]-3-[3-(1-methyl-1H-pyrazol-4-yl)-1H-pyrazolo[4,3-c]pyridin-6-yl]urea]
70 | 0.2 to 1.7 | C[C@@H](NC(=O)Nc1cc2[nH]nc(-c3cnn(C)c3)c2cn1)c1ccccc1 [Example 29, 1-[3-(1-methyl-1H-pyrazol-4-yl)-1H-pyrazolo[4,3-c]pyridin-6-yl]-3-[(1R)-1-phenylethyl]urea]
